Reference: ChEMBL document CHEMBL1201862, “PubChem BioAssay data set” (2004)
Calls of active or inactive are those of the source. Rule as the data show it, for most assays here: actives have a measured IC50 and inactives only a lower limit.

Legend:
[1] = growth suppression of PTEN-null colon cells, dose response, cell-based, HCT116 PTEN knockout (AID 1047); format: functional;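 also: HCT116 colon tumor cells with PTEN knocked out; cells exposed to compound for 60 hours before readout; potency for loss of cell viability measured by luminescence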
[2] = target: Peroxisome proliferator-activated receptor gamma/Nuclear receptor corepressor 2 (Homo sapiens, UniProt P37231+Q9Y618); test: Counterscreen for NR2E3 inverse agonists: TR-FRET-based biochemical high throughput dose response assay to identify inverse agonists of the interaction between peroxisome proliferator-activated receptor gamma (PPARg) and nuclear receptor co-repressor 2 (NCOR2).; format: functional
Chain of Peroxisome proliferator-activated receptor gamma/Nuclear receptor corepressor 2 (P37231 whole entry): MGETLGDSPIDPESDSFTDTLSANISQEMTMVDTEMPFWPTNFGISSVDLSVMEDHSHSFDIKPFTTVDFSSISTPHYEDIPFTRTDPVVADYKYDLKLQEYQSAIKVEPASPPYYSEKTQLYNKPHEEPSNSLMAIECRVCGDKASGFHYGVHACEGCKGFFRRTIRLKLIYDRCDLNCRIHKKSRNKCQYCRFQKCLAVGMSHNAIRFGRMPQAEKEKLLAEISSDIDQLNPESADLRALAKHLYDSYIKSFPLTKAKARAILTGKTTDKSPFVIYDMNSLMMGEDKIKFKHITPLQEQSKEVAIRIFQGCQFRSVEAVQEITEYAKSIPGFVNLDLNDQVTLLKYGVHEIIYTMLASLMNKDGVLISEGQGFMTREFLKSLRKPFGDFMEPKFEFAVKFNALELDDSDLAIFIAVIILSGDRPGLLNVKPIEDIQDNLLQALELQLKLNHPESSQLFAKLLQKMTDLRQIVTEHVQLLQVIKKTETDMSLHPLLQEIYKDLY
Chain of Peroxisome proliferator-activated receptor gamma/Nuclear receptor corepressor 2 (Q9Y618 whole entry): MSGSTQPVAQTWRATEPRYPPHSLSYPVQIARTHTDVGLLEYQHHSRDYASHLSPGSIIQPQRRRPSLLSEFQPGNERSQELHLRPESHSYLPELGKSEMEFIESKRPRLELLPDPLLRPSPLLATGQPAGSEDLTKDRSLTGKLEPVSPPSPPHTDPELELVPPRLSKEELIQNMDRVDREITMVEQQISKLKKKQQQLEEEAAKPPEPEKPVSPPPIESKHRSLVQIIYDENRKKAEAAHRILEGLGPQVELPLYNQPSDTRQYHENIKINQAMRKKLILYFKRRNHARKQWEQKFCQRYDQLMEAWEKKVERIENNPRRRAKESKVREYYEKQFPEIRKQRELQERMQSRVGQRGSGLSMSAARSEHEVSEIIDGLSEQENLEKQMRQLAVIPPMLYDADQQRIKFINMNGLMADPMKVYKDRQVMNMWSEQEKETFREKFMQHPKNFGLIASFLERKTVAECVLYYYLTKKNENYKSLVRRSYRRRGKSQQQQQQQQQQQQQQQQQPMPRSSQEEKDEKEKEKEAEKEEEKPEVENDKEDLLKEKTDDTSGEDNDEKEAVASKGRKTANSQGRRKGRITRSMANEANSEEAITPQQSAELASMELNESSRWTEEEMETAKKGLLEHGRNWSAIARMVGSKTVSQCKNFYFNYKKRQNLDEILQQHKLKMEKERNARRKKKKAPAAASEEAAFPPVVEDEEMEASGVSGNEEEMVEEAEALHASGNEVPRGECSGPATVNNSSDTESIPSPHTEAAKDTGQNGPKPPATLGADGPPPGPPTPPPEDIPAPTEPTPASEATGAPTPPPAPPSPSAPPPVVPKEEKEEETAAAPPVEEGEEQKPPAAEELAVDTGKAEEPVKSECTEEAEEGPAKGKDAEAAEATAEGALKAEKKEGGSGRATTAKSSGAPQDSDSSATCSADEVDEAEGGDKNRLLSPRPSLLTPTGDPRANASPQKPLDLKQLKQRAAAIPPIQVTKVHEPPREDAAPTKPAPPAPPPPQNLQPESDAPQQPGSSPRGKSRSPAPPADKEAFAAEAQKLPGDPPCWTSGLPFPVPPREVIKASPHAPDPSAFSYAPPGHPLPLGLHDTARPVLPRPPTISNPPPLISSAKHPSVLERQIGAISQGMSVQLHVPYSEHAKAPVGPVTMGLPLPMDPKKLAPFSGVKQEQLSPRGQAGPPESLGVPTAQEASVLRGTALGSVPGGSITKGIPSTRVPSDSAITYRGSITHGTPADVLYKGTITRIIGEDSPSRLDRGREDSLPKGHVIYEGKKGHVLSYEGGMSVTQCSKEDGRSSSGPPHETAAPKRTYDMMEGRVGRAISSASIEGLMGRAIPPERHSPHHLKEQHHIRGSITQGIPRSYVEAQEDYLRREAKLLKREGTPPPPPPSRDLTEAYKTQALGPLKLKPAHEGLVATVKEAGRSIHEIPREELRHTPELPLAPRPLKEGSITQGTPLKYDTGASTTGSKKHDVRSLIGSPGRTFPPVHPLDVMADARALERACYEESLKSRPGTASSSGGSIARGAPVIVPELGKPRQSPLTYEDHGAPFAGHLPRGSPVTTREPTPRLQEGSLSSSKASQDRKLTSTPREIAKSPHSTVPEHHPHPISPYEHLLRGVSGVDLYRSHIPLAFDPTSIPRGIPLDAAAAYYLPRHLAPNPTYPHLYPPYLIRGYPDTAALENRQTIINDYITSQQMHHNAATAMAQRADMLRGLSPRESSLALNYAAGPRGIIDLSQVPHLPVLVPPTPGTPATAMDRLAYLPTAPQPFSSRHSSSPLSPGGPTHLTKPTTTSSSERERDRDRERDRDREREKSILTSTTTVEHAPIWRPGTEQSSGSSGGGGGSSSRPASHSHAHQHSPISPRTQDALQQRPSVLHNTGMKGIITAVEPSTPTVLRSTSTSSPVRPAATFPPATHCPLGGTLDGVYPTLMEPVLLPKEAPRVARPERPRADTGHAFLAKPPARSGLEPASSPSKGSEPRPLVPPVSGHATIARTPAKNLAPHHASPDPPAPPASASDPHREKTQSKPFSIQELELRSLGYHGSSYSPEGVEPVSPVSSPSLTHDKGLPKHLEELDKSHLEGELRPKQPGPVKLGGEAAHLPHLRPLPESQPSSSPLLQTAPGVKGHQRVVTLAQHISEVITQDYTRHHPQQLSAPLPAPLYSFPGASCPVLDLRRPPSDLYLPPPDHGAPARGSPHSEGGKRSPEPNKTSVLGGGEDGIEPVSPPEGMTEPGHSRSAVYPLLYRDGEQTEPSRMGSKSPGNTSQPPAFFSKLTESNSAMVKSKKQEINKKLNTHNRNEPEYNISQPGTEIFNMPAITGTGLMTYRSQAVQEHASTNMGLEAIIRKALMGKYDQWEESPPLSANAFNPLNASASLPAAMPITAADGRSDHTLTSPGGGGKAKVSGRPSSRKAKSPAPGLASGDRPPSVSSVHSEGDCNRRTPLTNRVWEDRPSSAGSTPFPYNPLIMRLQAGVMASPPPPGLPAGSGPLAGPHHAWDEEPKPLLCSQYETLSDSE

[3] = target: Photoreceptor-specific nuclear receptor (Homo sapiens, UniProt Q9Y5X4); test: NR2E3 inverse agonists, dose response, biochemical, TR-FRET (AID 463256); format: functional
Chain of Photoreceptor-specific nuclear receptor (Q9Y5X4 whole entry): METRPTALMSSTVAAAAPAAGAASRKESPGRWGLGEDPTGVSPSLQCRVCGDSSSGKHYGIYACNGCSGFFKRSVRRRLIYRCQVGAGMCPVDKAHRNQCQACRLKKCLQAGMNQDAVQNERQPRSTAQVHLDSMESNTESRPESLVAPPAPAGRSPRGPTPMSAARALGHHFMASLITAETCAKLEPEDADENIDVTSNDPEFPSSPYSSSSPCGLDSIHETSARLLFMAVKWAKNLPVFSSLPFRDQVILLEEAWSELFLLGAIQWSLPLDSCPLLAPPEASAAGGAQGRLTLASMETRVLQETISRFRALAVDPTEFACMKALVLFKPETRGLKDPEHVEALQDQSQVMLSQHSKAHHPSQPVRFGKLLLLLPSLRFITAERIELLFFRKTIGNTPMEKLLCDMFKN

[4] = growth suppression of beta-catenin-knockout colon cells, dose response, cell-based, HCT116, human colon tumor (AID 1045); format: functional;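 also: HCT116 colon tumor cells with beta catenin knocked out; cells exposed to compound for 60 hours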
Caspase-3 [5] = target: T1, Caspase-3 (Homo sapiens, UniProt P42574); format: functional
T1 sequence (P42574 whole entry): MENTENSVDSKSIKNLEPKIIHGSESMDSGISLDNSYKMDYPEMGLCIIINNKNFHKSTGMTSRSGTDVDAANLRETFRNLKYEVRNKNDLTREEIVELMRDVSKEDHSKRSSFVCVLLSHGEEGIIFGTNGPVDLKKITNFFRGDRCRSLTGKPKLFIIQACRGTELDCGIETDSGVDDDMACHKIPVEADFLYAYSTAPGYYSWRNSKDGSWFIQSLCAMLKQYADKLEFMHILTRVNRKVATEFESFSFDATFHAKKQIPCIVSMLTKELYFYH

[6] = target: T2, Sentrin-specific protease 7 (Homo sapiens, UniProt Q9BQF6); format: functional;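 also: Luminescence-based dose-response confirmation of ultra-high-throughput screening hits, measuring inhibition of SENP7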
T2 sequence (Q9BQF6 whole entry): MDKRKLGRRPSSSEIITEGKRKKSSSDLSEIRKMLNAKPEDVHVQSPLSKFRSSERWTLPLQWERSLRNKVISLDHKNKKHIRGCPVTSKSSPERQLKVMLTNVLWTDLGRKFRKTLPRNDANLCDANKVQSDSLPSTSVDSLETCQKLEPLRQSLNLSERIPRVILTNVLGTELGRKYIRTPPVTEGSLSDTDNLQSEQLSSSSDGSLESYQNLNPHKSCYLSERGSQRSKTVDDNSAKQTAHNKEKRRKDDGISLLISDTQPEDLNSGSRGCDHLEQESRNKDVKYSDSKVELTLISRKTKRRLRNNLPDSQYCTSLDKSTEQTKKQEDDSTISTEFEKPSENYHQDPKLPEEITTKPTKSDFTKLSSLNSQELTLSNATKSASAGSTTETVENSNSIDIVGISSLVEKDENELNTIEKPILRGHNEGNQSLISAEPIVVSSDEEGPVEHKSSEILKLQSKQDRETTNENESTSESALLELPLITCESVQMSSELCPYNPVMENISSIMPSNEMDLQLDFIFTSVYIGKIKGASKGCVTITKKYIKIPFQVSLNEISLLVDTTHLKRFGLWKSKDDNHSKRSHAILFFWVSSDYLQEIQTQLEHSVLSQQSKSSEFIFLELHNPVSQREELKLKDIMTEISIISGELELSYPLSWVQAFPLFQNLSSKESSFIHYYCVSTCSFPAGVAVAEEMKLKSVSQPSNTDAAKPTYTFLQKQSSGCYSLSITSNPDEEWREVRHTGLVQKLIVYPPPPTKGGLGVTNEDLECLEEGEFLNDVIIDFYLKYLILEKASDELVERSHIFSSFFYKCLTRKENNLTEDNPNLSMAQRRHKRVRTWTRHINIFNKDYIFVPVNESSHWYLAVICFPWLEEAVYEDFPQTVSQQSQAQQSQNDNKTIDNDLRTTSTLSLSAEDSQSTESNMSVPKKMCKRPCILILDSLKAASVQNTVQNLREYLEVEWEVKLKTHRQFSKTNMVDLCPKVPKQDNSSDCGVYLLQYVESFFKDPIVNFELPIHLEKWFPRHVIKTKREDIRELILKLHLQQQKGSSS

[7] = target: T3, Sentrin-specific protease 6 (Homo sapiens, UniProt Q9GZR1); format: functional
T3 sequence (Q9GZR1 whole entry): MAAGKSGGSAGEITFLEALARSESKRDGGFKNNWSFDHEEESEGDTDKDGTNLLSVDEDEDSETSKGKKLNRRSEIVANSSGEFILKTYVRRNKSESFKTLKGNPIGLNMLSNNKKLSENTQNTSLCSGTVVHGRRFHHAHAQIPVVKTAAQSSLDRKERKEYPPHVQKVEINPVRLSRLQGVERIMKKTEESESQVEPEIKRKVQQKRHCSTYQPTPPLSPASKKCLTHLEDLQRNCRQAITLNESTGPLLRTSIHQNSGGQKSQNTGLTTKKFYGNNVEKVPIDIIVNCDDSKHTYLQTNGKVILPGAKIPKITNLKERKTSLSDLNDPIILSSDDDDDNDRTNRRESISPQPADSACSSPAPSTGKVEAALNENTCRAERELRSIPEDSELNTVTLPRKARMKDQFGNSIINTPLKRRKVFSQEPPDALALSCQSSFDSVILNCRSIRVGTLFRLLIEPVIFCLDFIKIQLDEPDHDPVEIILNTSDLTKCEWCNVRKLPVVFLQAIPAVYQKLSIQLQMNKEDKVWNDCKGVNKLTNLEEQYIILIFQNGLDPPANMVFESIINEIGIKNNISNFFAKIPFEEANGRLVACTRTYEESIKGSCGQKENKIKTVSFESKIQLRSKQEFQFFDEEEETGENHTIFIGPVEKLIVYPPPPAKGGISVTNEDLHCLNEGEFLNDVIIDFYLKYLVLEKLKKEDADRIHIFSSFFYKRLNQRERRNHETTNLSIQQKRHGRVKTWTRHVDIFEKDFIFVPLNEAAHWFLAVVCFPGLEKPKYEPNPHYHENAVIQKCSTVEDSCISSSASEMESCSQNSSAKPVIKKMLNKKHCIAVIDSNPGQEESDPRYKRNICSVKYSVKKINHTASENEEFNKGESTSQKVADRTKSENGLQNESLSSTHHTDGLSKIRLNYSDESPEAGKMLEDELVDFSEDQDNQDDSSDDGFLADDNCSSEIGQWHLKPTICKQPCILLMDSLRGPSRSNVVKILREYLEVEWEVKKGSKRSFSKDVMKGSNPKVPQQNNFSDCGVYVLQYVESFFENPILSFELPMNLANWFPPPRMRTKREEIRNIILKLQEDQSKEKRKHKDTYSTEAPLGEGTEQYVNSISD

[8] = target: T4, Sentrin-specific protease 8 (Homo sapiens, UniProt Q96LD8); format: functional;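 also: luminescence read-out of SENP8 inhibition, dose-response confirmation following an ultra-high-throughput screen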
T4 sequence (Q96LD8 whole entry): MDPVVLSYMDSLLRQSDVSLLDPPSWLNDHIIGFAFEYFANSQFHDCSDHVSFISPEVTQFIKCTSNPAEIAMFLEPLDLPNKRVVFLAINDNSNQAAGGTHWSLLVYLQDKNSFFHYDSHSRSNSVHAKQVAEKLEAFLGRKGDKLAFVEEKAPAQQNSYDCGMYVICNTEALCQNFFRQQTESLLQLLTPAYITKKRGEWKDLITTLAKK

[9] = target: T4, Sentrin-specific protease 8; test: SENP8 protease inhibitors, SAR follow-up, biochemical, luminescence (AID 504501); format: functional
Caspase-3 [10] = target: T1, Caspase-3; test: SAR Analysis of small molecule inhibitors of Sentrin-specific proteases (SENPs) using a Caspase-3 Selectivity assay. [Related pubchem assays (depositor defined):AID2540, AID2599, AID434973, AID489001]; format: functional
[11] = target: T3, Sentrin-specific protease 6; test: SAR Analysis of small molecule inhibitors of Sentrin-specific protease 6 (SENP6) using a Luminescent assay. [Related pubchem assays (depositor defined):AID2582, AID2599]; format: functional
[12] = target: T2, Sentrin-specific protease 7; test: SENP7 protease inhibitors, SAR follow-up, biochemical, luminescence (AID 504497); format: functional
[13] = target: Glyceraldehyde-3-phosphate dehydrogenase (Homo sapiens, UniProt P04406)
Chain of Glyceraldehyde-3-phosphate dehydrogenase (P04406 whole entry): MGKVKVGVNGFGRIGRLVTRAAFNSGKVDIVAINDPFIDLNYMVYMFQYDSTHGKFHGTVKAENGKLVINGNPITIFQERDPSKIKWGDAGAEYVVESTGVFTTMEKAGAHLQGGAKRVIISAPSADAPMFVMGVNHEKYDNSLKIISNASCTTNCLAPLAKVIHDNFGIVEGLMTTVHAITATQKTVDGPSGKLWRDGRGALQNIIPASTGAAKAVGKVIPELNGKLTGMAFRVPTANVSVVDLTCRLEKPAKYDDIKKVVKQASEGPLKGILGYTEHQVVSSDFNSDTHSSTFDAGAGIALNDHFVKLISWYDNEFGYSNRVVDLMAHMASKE

Bcl-2-related protein A1 [14] = target: T5, Bcl-2-related protein A1 (Mus musculus, UniProt Q07440); test: Bfl-1 inhibitors blocking BH3 peptide binding, confirmation, biochemical, TR-FRET, mouse Bfl-1 (AID 621);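 also: TR-FRET binding of GST-Bfl-1 to FITC-labelled Bid peptide via terbium antibody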
T5 sequence (Q07440 whole entry): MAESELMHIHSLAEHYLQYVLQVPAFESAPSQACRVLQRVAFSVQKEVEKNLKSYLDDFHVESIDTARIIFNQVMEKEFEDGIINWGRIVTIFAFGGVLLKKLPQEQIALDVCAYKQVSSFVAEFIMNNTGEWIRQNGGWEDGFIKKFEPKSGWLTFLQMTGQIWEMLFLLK

Bcl-2-related protein A1 [15] = target: T5, Bcl-2-related protein A1; test: Bfl-1 binding inhibitors, SAR follow-up, biochemical, fluorescence polarization (AID 1070)
[16] = target: Neuropeptide Y receptor type 2 (Homo sapiens, UniProt P49146); test: Fluorescence-based counterscreen for agonists of NPY-Y1: cell-based high-throughput dose response assay for agonists of NPY-Y2.; format: functional
Chain of Neuropeptide Y receptor type 2 (P49146 whole entry): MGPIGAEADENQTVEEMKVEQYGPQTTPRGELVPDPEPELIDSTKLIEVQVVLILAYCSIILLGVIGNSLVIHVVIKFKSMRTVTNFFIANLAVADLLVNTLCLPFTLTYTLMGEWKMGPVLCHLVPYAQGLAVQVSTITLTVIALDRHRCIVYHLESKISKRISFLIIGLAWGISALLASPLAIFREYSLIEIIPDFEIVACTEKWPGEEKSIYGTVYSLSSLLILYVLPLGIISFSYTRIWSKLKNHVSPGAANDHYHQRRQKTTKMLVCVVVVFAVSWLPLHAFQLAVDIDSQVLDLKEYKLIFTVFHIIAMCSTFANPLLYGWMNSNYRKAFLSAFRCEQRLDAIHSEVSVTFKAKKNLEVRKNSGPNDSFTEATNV

Streptokinase A = target: T6, Streptokinase A (Streptococcus pyogenes serotype M1, UniProt P10520); test: S. pyogenes streptokinase expression inhibitors, potency, dose response, plasminogen activation absorbance, OD405 (AID 1914); format: functional, Streptococcus pyogenes M1 GAS;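 also: secreted streptokinase activity via plasminogen activation per viability signal from cell pellet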
T6 sequence (P10520 whole entry): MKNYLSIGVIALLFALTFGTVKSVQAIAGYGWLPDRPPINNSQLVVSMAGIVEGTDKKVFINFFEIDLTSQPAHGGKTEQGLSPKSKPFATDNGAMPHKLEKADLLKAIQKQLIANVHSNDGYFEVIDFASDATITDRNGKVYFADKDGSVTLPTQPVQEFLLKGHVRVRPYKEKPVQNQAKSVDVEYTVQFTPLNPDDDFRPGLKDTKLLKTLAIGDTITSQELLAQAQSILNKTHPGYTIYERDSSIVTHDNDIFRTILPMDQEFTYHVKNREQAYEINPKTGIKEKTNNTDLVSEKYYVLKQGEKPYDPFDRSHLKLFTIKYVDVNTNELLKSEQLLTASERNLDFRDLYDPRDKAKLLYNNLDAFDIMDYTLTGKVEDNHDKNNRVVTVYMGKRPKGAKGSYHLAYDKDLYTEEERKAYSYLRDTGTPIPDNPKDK

[17] = target: Neuropeptide Y receptor type 1 (Homo sapiens, UniProt P25929); test: Fluorescence-based dose response cell-based high-throughput screening assay for agonists of NPY-Y1. [Related pubchem assays: 1697 (Screening assay (NPY-Y1 agonists).), 1359 (Screening assay (NPY-Y2 potentiators or agonists).), 1304 (Screening assay (NPY-Y1 potentiators or agonists).), 1704 (Screening assay (CNGC inhibitors).), 1791 (Summary AID.)]; format: functional
Chain of Neuropeptide Y receptor type 1 (P25929 whole entry): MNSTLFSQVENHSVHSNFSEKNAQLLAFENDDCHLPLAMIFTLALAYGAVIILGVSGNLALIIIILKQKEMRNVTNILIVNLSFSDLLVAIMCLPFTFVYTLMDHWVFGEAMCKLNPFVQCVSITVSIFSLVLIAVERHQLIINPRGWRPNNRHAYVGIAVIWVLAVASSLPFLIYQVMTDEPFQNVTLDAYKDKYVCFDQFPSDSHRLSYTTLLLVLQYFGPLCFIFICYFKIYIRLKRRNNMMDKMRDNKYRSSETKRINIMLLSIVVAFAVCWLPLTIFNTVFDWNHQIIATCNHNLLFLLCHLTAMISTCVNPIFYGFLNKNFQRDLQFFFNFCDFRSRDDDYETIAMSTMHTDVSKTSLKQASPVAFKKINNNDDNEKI

Cc1cc2nc(-c3ccc(SCC(=O)Nc4ccc(S(=O)(=O)NC5CC5)cc4)nc3)[nH]c2cc1C
EC50 [1]: 22.7 µM (active) | IC50 [2]: 4.15 µM (active) | IC50 [3]: > 39.8 µM (not active) | EC50 [4]: 24.7 µM (active) | IC50 (Caspase-3 [5]): 21.3 µM (active) | IC50 [6]: 2.43 µM (active) | IC50 [7]: > 100 µM (inactive) | IC50 [8]: > 100 µM (inactive) | IC50 [9]: > 99 µM (inactive) | IC50 (Caspase-3 [10]): 14.4 µM (active) | IC50 [11]: > 99 µM (inactive) | IC50 [12]: 2.75 µM (active)

CCN1CCN(C2=C(Cl)C(=O)N(c3ccc([N+](=O)[O-])cc3)C2=O)CC1
IC50 [13]: > 100 µM (not active) | IC50 (Bcl-2-related protein A1 [14]): 0.83 µM (active) | IC50 (Bcl-2-related protein A1 [15]): 0.565 µM (active)

CCOc1ccc(NC(=S)NNC(=S)Nc2cccc(C(F)(F)F)c2)cc1
EC50 [16]: > 35.4 µM (not active) | EC50 (Streptokinase A): > 150 µM (not active) | EC50 [17]: 27.3 µM (not active)
